Test system: relapsed or refractory, rituximab-naive or -sensitive follicular B-cell NHL
Assay: Time to progression (TTP), Vc-R vs rituximab study, by biomarker
Format: in vivo, human
Set-up: TTP Median: unit not given here
From the text: Non-Hodgkin lymphoma (NHL) encompasses several unique malignant lymphoid disease entities that vary in clinical behavior, morphologic appearance, immunologic, and molecular phenotype. […] A randomized, open-label, active-controlled, multicenter, multinational, prospective study to compare the efficacy and safety of the combination of bortezomib and rituximab (Vc-R) to single-agent rituximab in subjects who have relapsed or refractory, rituximab-naive or -sensitive follicular B-cell NHL was performed.
Subjects were centrally randomized to Treatment Groups A (Vc-R) or B (rituximab) in a 1:1 ratio taking into account the following stratification factors: • Follicular Lymphoma International Prognostic Index (FLIPI) score (low [0 or 1 factor], intermediate [2 factors], high [≧3 factors]); • Prior rituximab therapy (yes, no); • Time since last dose of anti-lymphoma therapy (≦1 year, >1 year); • Region (United States/Canada, European Union, Rest of World).
For single-marker association analyses and pair-wise comparisons, a log rank test and Cox proportional hazard model was utilized for assessments of PFS, TTP, and OS between the treatment groups. Kaplan-Meier curves were utilized to estimate the distribution differences between groups in the time-to-event analyses. Comparison of the response rates between the treatment groups was conducted using the Fishers exact test. Single-marker association analyses were stratified by the covariates.
For pair-wise comparison analysis, biomarker pairs were formed by combinations of two markers. A log rank test was utilized for assessments of PFS, TTP, and OS between the treatment groups in the subpopulation defined by biomarker pairs. Kaplan-Meier curves were utilized to estimate the distribution differences between groups in the time-to-event analyses. Comparison of the response rates between the treatment groups was conducted using the Fishers exact test. Methods of Analysis for the multiple biomarker comparison models can be found in section 4.6.

[1] = 20S % NUCLEAR STAINING: 30-50, 2 Prior Lines of Therapy
[2] = 20S % NUCLEAR STAINING: 60-70, Male
[3] = 20S % POSITIVE CYTOPLASMIC SIGNAL: 0-20, >65 years old
[4] = 20S % POSITIVE CYTOPLASMIC SIGNAL: 95-100, Ann Arbor Stage IV
[5] = 20S INTENSITY CYTOPLASMIC SIGNAL: ≧3+, Male
[6] = CD68 OVERALL POSITIVE: 0-25, 2 Prior Lines of Therapy
[7] = CD68 OVERALL POSITIVE: 0-25, ≦1 year since last anti-lymphoma treatment
[8] = CD68 OVERALL POSITIVE: 26-50, Ann Arbor Stage IV
[9] = CD68 OVERALL POSITIVE: 26-50, High FLIPI Score
[10] = CD68 OVERALL POSITIVE: 26-50, No High Tumor Burden
[11] = CD68 OVERALL POSITIVE: 26-50, Rest of World
[12] = CD68 OVERALL POSITIVE: 26-50, ≦65 years old
[13] = CD68 POSITIVE FOLLICULAR: 0-25, >1 year since last anti-lymphoma treatment
[14] = CD68 POSITIVE FOLLICULAR: 26-50, 1 Prior Line of Therapy
[15] = CD68 POSITIVE FOLLICULAR: 26-50, High FLIPI Score
[16] = CD68 POSITIVE FOLLICULAR: 26-50, No High Tumor Burden
[17] = CD68 POSITIVE FOLLICULAR: 26-50, No Subgroup
[18] = CD68 POSITIVE FOLLICULAR: 26-50, White
[19] = CD68 POSITIVE FOLLICULAR: 26-50, ≦65 years old
[20] = CD68 POSITIVE FOLLICULAR: 51-75, Female
[21] = CD68 POSITIVE PERIFOLLICULAR: 0-25, 2 Prior Lines of Therapy
[22] = CD68 POSITIVE PERIFOLLICULAR: 26-50, Male
[23] = CD68 POSITIVE PERIFOLLICULAR: 26-50, Other
[24] = CD68 POSITIVE PERIFOLLICULAR: >75, 1 Prior Line of Therapy
[25] = CD68 POSITIVE PERIFOLLICULAR: >75, ≦65 years old
[26] = P27 % NUCLEI POSITIVE: 30-50, Ann Arbor Stage IV
[27] = P27 % NUCLEI POSITIVE: 60-70, Intermediate FLIPI Score
[28] = P27 SIGNAL INTENSITY: ≧2+, 4 Prior Lines of Therapy
[29] = P27 SIGNAL INTENSITY: ≧2+, Ann Arbor Stage IV
[30] = P27 SIGNAL INTENSITY: ≧2+, Male
[31] = P27 SIGNAL INTENSITY: ≧2+, ≦65 years old
[32] = P65 % NUCLEAR STAINING: 0, Male
[33] = P65 % NUCLEAR STAINING: 0, No Prior Rituximab Therapy
[34] = P65 % NUCLEAR STAINING: 0, ≦65 years old
[35] = P65 % POSITIVE CYTOPLASMIC SIGNAL: >90%, 1 Prior Line of Therapy
[36] = P65 % POSITIVE CYTOPLASMIC SIGNAL: >90%, >1 year since last anti-lymphoma treatment
[37] = P65 % POSITIVE CYTOPLASMIC SIGNAL: >90%, Ann Arbor Stage IV
[38] = P65 % POSITIVE CYTOPLASMIC SIGNAL: >90%, High FLIPI Score
[39] = P65 % POSITIVE CYTOPLASMIC SIGNAL: >90%, Male
[40] = P65 % POSITIVE CYTOPLASMIC SIGNAL: >90%, No Prior Rituximab Therapy
[41] = P65 % POSITIVE CYTOPLASMIC SIGNAL: >90%, No Subgroup
[42] = P65 % POSITIVE CYTOPLASMIC SIGNAL: >90%, White
[43] = P65 % POSITIVE CYTOPLASMIC SIGNAL: >90%, ≦65 years old
[44] = P65 % POSITIVE CYTOPLASMIC SIGNAL: ≦90%, Intermediate FLIPI Score
[45] = P65 INTENSITY CYTOPLASMIC SIGNAL: ≦1+, Ann Arbor Stage III
[46] = P65 INTENSITY CYTOPLASMIC SIGNAL: ≧2+, High FLIPI Score
[47] = P65 INTENSITY CYTOPLASMIC SIGNAL: ≧2+, ≦65 years old
[48] = PSMB1/A171S: G/G, Ann Arbor Stage IV, IRC review
[49] = PSMB1/A171S: G/G, High Tumor Burden, IRC review

rituximab
TTP Evt/N [1]: 11/13 | TTP Median [1]: 239 | TTP Evt/N [2]: 13/16 | TTP Median [2]: 212 | TTP Evt/N [3]: 5/6 | TTP Median [3]: 278 | TTP Evt/N [4]: 43/56 | TTP Median [4]: 278 | TTP Evt/N [5]: 20/27 | TTP Median [5]: 280 | TTP Evt/N [6]: 6/8 | TTP Median [6]: 142 | TTP Evt/N [7]: 11/18 | TTP Median [7]: 424 | TTP Evt/N [8]: 44/56 | TTP Median [8]: 277 | TTP Evt/N [9]: 36/45 | TTP Median [9]: 277 | TTP Evt/N [10]: 37/54 | TTP Median [10]: 357 | TTP Evt/N [11]: 40/51 | TTP Median [11]: 277 | TTP Evt/N [12]: 57/77 | TTP Median [12]: 278 | TTP Evt/N [13]: 23/34 | TTP Median [13]: 357 | TTP Evt/N [14]: 26/39 | TTP Median [14]: 349 | TTP Evt/N [15]: 31/37 | TTP Median [15]: 205 | TTP Evt/N [16]: 29/44 | TTP Median [16]: 351 | TTP Evt/N [17]: 65/91 | TTP Median [17]: 277 | TTP Evt/N [18]: 53/77 | TTP Median [18]: 334 | TTP Evt/N [19]: 52/67 | TTP Median [19]: 270 | TTP Evt/N (CD68 POSITIVE FOLLICULAR: 51-75, 3 Prior Lines of Therapy): 1/4 | TTP Evt/N [20]: 14/26 | TTP Median [20]: 708 | TTP Evt/N [21]: 7/8 | TTP Median [21]: 70 | TTP Evt/N [22]: 22/30 | TTP Median [22]: 239 | TTP Evt/N [23]: 4/4 | TTP Median [23]: 128 | TTP Evt/N [24]: 13/18 | TTP Median [24]: 275 | TTP Evt/N [25]: 17/23 | TTP Median [25]: 275 | TTP Evt/N [26]: 15/19 | TTP Median [26]: 278 | TTP Evt/N [27]: 6/13 | TTP Median [27]: 513 | TTP Evt/N [28]: 9/15 | TTP Median [28]: 348 | TTP Evt/N [29]: 64/85 | TTP Median [29]: 283 | TTP Evt/N [30]: 52/72 | TTP Median [30]: 280 | TTP Evt/N [31]: 104/153 | TTP Median [31]: 281 | TTP Evt/N [32]: 56/74 | TTP Median [32]: 280 | TTP Evt/N [33]: 77/102 | TTP Median [33]: 322 | TTP Evt/N [34]: 97/138 | TTP Median [34]: 287 | TTP Evt/N [35]: 56/89 | TTP Median [35]: 349 | TTP Evt/N [36]: 77/117 | TTP Median [36]: 357 | TTP Evt/N [37]: 67/87 | TTP Median [37]: 275 | TTP Evt/N [38]: 61/83 | TTP Median [38]: 239 | TTP Evt/N [39]: 54/72 | TTP Median [39]: 271 | TTP Evt/N [40]: 80/112 | TTP Median [40]: 345 | TTP Evt/N [41]: 139/204 | TTP Median [41]: 334 | TTP Evt/N [42]: 119/179 | TTP Median [42]: 345 | TTP Evt/N [43]: 108/154 | TTP Median [43]: 278 | TTP Evt/N [44]: 5/16 | TTP Median [44]: 567 | TTP Evt/N [45]: 7/11 | TTP Median [45]: 204 | TTP Evt/N [46]: 60/80 | TTP Median [46]: 275 | TTP Evt/N [47]: 105/152 | TTP Median [47]: 287 | TTP Evt/N [48]: 95/127 | TTP Median [48]: 278 | TTP Evt/N [49]: 110/147 | TTP Median [49]: 273 | TTP Evt/N (PSMB1/A171S: G/G, ≦65 years old, IRC review): 131/198
